Data on one molecule can be found in article PMC11891579, “Fluorescent PyrAte-(S)-citalopram conjugates enable imaging of the serotonin transporter in living tissue” (Chemical Science, 2025).

In test [1] the target is T1, SERT (Homo sapiens, UniProt P31645).
T1 construct: expressed in transfected cells
In words: whole-cell patch clamp of 5-HT-mediated currents in SERT-expressing HEK293 cells. The format is cell-based. Here is the method: (§1) ten minutes (for [3H]MPP+), by exchange of the substrate-containing buffer with 0.2 mL ice-cold KHB.
The KHB was aspirated immediately. Cells were lysed and prepared for [3H] content analysis by adding 0.2 mL Ultima Gold™ XR liquid scintillation cocktail. Measurements were performed in a 1450 MicroBeta microplate liquid scintillation counter. Non-specific uptake was determined in the presence of 30 µM paroxetine (for YhSERT), 50 µM GBR12909 (for YhDAT and hNET), or 100 µM decynium-22 (for YhOCT3).
For radioligand binding assays, membranes were first prepared from HEK293 cells stably expressing YhSERT. Cells were harvested from dishes using a plastic scraper and ice-cold PBS. Cells were recovered as a pellet after centrifugation (400× g) for 10 min at 4°C, and then re-suspended in HME buffer. […] Protein concentration was determined using Coomassie Brilliant Blue kit (BioRad Laboratories, California, USA). […] The amount of radioactivity in the filters was measured using a Tri-Carb 2800TR liquid scintillation analyzer (PerkinElmer). The Ki was calculated from the measured IC50 using the Cheng-Prusoff equation.
Prior to imaging, cell culture medium was replaced with pre-warmed KHB. […] PyrAtes were excited using a 405 nm laser, and its fluorescent signals collected using 525/50 nm emission filters; mCherry was excited using a 561 nm laser, and fluorescence was collected using 595/50 nm emission filters. […]
(In general: The patch-clamp technique gives a direct electrical read-out from membranes.)

Test [2] addresses T1, SERT. In words: radioligand binding assay, [3H]-imipramine competition in SERT-containing membrane fractions. The settings on record: 3 nM [3H]-imipramine; membranes of HEK293 YhSERT; mean ± SD of three experiments; Cheng-Prusoff; read-out: Ki, competitive binding with imipramine. Here is the method: as §1
The KHB was aspirated immediately. Cells were lysed and prepared for [3H] content analysis by adding 0.2 mL Ultima Gold™ XR liquid scintillation cocktail. […]
microplate liquid scintillation counter. Non-specific uptake was determined in the presence of 30 µM paroxetine (for YhSERT), 50 µM GBR12909 (for YhDAT and hNET), or 100 µM decynium-22 (for YhOCT3).
For radioligand binding assays, membranes were first prepared from HEK293 cells stably expressing YhSERT. Cells were harvested from dishes using a plastic scraper and ice-cold PBS. Cells were recovered as a pellet after centrifugation (400× g) for 10 min at 4°C, and then re-suspended in HME buffer. The cell suspension was frozen rapidly by immersing in liquid N2, and then immediately thawed and sonicated for three 12 pulses/min cycles. Membrane fractions were collected after centrifugation at 40000× g for 15 minutes, and then re-suspended in HME buffer. Protein concentration was determined using Coomassie Brilliant Blue kit (BioRad Laboratories, California, USA). The binding reactions were carried out in a final volume of 0.25 mL B2 buffer containing 15 µg membranes, 3 nM

T1 sequence (P31645 whole entry): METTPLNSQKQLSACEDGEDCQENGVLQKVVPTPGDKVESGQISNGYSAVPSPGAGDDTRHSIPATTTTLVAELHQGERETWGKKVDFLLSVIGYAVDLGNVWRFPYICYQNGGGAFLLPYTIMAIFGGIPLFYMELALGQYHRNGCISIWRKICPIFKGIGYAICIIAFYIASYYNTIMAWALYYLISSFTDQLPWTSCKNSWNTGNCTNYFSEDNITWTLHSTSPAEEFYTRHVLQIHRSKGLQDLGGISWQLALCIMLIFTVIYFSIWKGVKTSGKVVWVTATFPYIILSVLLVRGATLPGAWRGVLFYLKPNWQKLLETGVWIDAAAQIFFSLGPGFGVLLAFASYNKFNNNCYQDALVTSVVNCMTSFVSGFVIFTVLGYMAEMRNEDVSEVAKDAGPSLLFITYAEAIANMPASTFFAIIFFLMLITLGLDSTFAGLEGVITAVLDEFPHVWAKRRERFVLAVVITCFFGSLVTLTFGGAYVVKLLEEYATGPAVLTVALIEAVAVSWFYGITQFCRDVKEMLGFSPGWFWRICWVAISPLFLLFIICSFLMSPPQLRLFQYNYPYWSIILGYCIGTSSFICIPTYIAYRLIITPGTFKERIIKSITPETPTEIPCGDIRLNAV

For `CCN(CC)c1ccc(-c2cc[n+]3c(-c4ccccc4)c(N4CCCC4)n(CCCCCCC(=O)NCc4ccc5c(c4)CO[C@@]5(CCCN(C)C)c4ccc(F)cc4)c3c2)cc1` [PYR-C6-CIT, PyrAte-C6-(S)-citalopram], at SERT [1] (1 μM compound, 10 µM 5HT, N = 6), the “ratio of 5-HT-mediated currents before and after application (current reduced to)” value is 47%. The inhibition (usually how much of the control response was suppressed) at 1 µM on SERT [1] (HEK293, read-out: inhibition of 5-HT-mediated currents, 1 μM concentration) is approximately 50%. In addition, on SERT [2], the Ki (in general, the dissociation constant of the complex between target and ligand, obtained from inhibition or displacement) stood at 0.11 ± 0.07 µM.
